# Measured values reported in ChEMBL document CHEMBL5678797, “AZD7762, a novel checkpoint kinase inhibitor, drives checkpoint abrogation and potentiates DNA-targeted therapies” (Mol Cancer Ther, 2008).
# Legend:
# [1] = Toxicity in rnu rat assessed as appearance of skin rashes at 10 mg/kg measured after 10 to 30 days; type: organism-based; conditions: in vivo, time 10-30 day
# [2] = tested on: SW-620; experiment: Growth inhibition of human SW620 cells expressing p53 mutant assessed as reduction in cell growth incubated for 48 hrs; type: functional
# [3] = Toxicity in rnu rat assessed as appearance of hemorrhage at 10 mg/kg measured after 10 to 30 days; type: organism-based; conditions: in vivo, time 10-30 day
# [4] = tested on: SW-620; experiment: Antitumor activity against human SW620 cells xenografted in athymic mouse model assessed as T/C ratio at 50 mg/kg measured after 17 to 94 days post tumor implantation by caliper method relative to control; type: functional; conditions: time 17-94 day
# [5] = Toxicity in athymic mouse assessed as maximum weight loss at 50 mg/kg measured after 17 to 94 days post tumor implantation; type: organism-based; conditions: in vivo, time 17-94 day
# [6] = Toxicity in athymic mouse assessed as maximum weight loss at 25 mg/kg measured after 17 to 94 days post tumor implantation; type: organism-based; conditions: in vivo, time 17-94 day
# [7] = tested on: SW-620; experiment: Antitumor activity against human SW620 cells xenografted in athymic mouse model assessed as T/C ratio at 25 mg/kg measured after 17 to 94 days post tumor implantation by caliper method relative to control; type: functional; conditions: time 17-94 day
# [8] = tested on: HCT-116; experiment: Induction of G2 check point abrogation in human HCT-116 cells assessed as accumulation of cells at G2 phase incubated for 30 hrs by fluorescence-activated cell sorting analysis (reference value: 9.45%); type: functional
# [9] = tested on: HCT-116; experiment: Induction of G2 check point abrogation in human HCT-116 cells assessed as accumulation of cells at G1 phase incubated for 30 hrs by fluorescence-activated cell sorting analysis (reference value: 68.52%); type: functional
# [10] = tested on: MDA-MB-231; experiment: cells; conditions: Homo sapiens, MDA-MB-231, 48 h
# [11] = tested on: HT-29; experiment: Induction of cell cycle arrest in human HT-29 cells incubated for 20 hrs by phH3 staining based analysis
# [12] = tested on: NCI-H460; experiment: Antitumor activity against human NCI-H460 cells expressing DNp53 mutant xenografted in NCr athymic mouse model assessed as reduction in tumor volume at 25 mg/kg measured after 10 to 45 days in presence of gemcitabine by caliper method relative to control; type: functional; parameters: scale not given: the % may be the effect or the level left; conditions: time 10-45 day
# [13] = tested on: SW-620; experiment: Antitumor activity against human SW620 cells xenografted in athymic mouse model assessed as inhibition of tumor volume at 25 mg/kg measured after 17 to 94 days post tumor implantation in presence of 50 mg/kg of irinotecan by caliper method relative to control; type: functional; parameters: scale not given: the % may be the effect or the level left; conditions: time 17-94 day
# [14] = Toxicity in rat assessed as effect on body weight loss at high dose measured after 10 to 30 days post tumor implantation; conditions: in vivo, time 10-30 day
# [15] = tested on: NCI-H460; experiment: Antitumor activity against human NCI-H460 cells expressing DNp53 mutant xenografted in NCr athymic mouse model assessed as T/C ratio at 25 mg/kg measured after 10 to 45 days in presence of gemcitabine by caliper method relative to control; type: functional; conditions: time 10-45 day
# [16] = tested on: HCT-116; experiment: Induction of G2 check point abrogation in human HCT-116 cells assessed as accumulation of cells at G2 phase incubated for 30 hrs in presence of topotecan by fluorescence-activated cell sorting analysis (reference value: 9.45%); type: functional
# [17] = Toxicity in athymic mouse assessed as maximum weight loss at 25 mg/kg measured after 17 to 94 days post tumor implantation in presence of 50 mg/kg of irinotecan; type: organism-based; conditions: in vivo, time 17-94 day
# [18] = tested on: NCI-H460; experiment: Antitumor activity against human NCI-H460 cells expressing DNp53 mutant xenografted in rat model assessed as T/C ratio at 20 mg/kg measured after 10 to 30 days post tumor implantation in presence of gemcitabine by caliper method relative to control; type: functional; conditions: time 10-30 day
# [19] = tested on: SW-620; experiment: Antitumor activity against human SW620 cells xenografted in athymic mouse model assessed as T/C ratio at 25 mg/kg measured after 17 to 94 days post tumor implantation in presence of 50 mg/kg of irinotecan by caliper method relative to control; type: functional; conditions: time 17-94 day
# [20] = Toxicity in rnu rat assessed as appearance of skin rashes at 10 to 20 mg/kg, iv measured after 10 to 30 days post tumor implantation; type: organism-based; conditions: in vivo, dose lower 10 mg/kg, time lower 10 day, dose upper 20 mg/kg, time upper 30 day
# [21] = tested on: HCT-116; experiment: Induction of G2 check point abrogation in human HCT-116 cells assessed as accumulation of cells at G1 phase incubated for 30 hrs in presence of topotecan by fluorescence-activated cell sorting analysis (reference value: 68.52%); type: functional
# [22] = tested on: NCI-H460; experiment: Antitumor activity against human NCI-H460 cells expressing DNp53 mutant xenografted in NCr athymic mouse model assessed as log cell kill 25 mg/kg measured after 10 to 45 days in presence of gemcitabine; type: functional; conditions: time 10-45 day
# [23] = tested on: HT-29; experiment: Inhibition of camptothecin induced DNA damage in human HT-29 cells assessed as G2 checkpoint abrogation measured after 20 hrs presence of nocodazole by pHH3 staining based analysis
# [24] = tested on: SW-620; experiment: Antitumor activity against human SW620 cells xenografted in athymic mouse model assessed as T/C ratio at 25 mg/kg measured after 17 to 94 days post tumor implantation in presence of 25 mg/kg of irinotecan by caliper method relative to control; type: functional; conditions: time 17-94 day
# [25] = tested on: SW-620; experiment: Antitumor activity against human SW620 cells xenografted in NCr athymic mouse model assessed as reduction in tumor volume at 12.5 mg/kg measured from 30 to 55 days in presence of gemcitabine by caliper method relative to control; type: functional; parameters: scale not given: the % may be the effect or the level left; conditions: time 30-55 day
# [26] = Toxicity in athymic mouse assessed as maximum weight loss at 25 mg/kg measured after 17 to 94 days post tumor implantation in presence of 25 mg/kg of irinotecan; type: organism-based; conditions: in vivo, time 17-94 day
# [27] = tested on: SW-620; experiment: Growth inhibition of human SW620 cells expressing p53 mutant assessed as reduction in cell growth incubated for 48 hrs in presence of gemcitabine; type: functional
# [28] = tested on: NCI-H460; experiment: Antitumor activity against human NCI-H460 cells expressing DNp53 mutant xenografted in rat model assessed as T/C ratio at 10 mg/kg measured after 10 to 30 days post tumor implantation in presence of gemcitabine by caliper method relative to control; type: functional; conditions: time 10-30 day
# [29] = Toxicity in NCr athymic mouse xenografted with human SW620 cells assessed as effect on body weight loss at 12.5 to 25 mg/kg measured after 30 to 55 days in presence of gemcitabine; type: organism-based, SW-620; conditions: in vivo, dose lower 12.5 mg/kg, time lower 30 day, dose upper 25 mg/kg, time upper 55 day
# [30] = Toxicity in rat at low dose measured after 10 to 30 days post tumor implantation; conditions: in vivo, time 10-30 day
# [31] = tested on: SW-620; experiment: Antitumor activity against human SW620 cells xenografted in athymic mouse model assessed as inhibition of tumor volume at 25 mg/kg measured after 17 to 94 days post tumor implantation by caliper method relative to control; type: functional; parameters: scale not given: the % may be the effect or the level left; conditions: time 17-94 day
# [32] = Toxicity in NCr athymic mouse assessed as body weight loss at 25 mg/kg measured after 10 to 45 days in presence of gemcitabine relative to control; type: organism-based; conditions: in vivo, time 10-45 day
# [33] = tested on: SW-620; experiment: Antitumor activity against human SW620 cells xenografted in NCr athymic mouse model assessed as reduction in tumor volume at 25 mg/kg measured from 30 to 55 days in presence of gemcitabine by caliper method relative to control; type: functional; parameters: scale not given: the % may be the effect or the level left; conditions: time 30-55 day
# [34] = tested on: MDA-MB-231; experiment: Growth inhibition of human MDA-MB-231 cells expressing p53 mutant assessed as reduction in cell growth incubated for 48 hrs in presence of topotecan; type: functional
# [35] = tested on: SW-620; experiment: Antitumor activity against human SW620 cells xenografted in athymic mouse model assessed as inhibition of tumor volume at 25 mg/kg measured after 17 to 94 days post tumor implantation in presence of 25 mg/kg of irinotecan by caliper method relative to control; type: functional; parameters: scale not given: the % may be the effect or the level left; conditions: time 17-94 day
structure (smiles),measurement,setting,value
Nc1ccn([C@@H]2O[C@H](CO)[C@@H](O)C2(F)F)c(=O)n1 [GEMCITABINE],Activity,[1],Toxic
same,GI50,[2],24.1 nM
same,TGI,[2]; read-out: GI100,> 100 nM
same,Activity,[3],Toxic
CCc1c2c(nc3ccc(OC(=O)N4CCC(N5CCCCC5)CC4)cc13)-c1cc3c(c(=O)n1C2)COC(=O)[C@]3(O)CC [IRINOTECAN],T/C,[4],1%
same,Activity,[5],-1%
same,Activity,[6],0%
same,T/C,[7],9%
CC[C@@]1(O)C(=O)OCc2c1cc1n(c2=O)Cc2cc3c(CN(C)C)c(O)ccc3nc2-1 [TOPOTECAN],Activity,[8],75.85%
same,Activity,[9],17.06%
same,GI50,[10],2250 nM
NC(=O)Nc1cc(-c2cccc(F)c2)sc1C(=O)N[C@H]1CCCNC1 [AZD-7762],EC50,[11],620 nM
same,Activity,[12],76%
same,Activity,[13],116%
same,Activity,[14],Toxic
same,T/C,[15],26%
same,Activity,[16],33.02%
same,Activity,[17],0%
same,T/C,[18],32%
same,T/C,[19],-67%
same,Activity,[20],Non-Toxic
same,Activity,[21],52.86%
same,LCK,[22],0.9
same,EC50,[23],10 nM
same,T/C,[24],-66%
same,Activity,[25],73%
same,Activity,[26],0%
same,GI50,[27],1.08 nM
same,TGI,[27]; read-out: GI100,1.5 nM
same,T/C,[28],48%
same,Activity,[29],Non-Toxic
same,Activity,[30],Non-Toxic
same,Activity,[31],38%
same,Activity,[32],7%
same,Activity,[6],0%
same,T/C,[7],56%
same,Activity,[33],77%
same,GI50,[34],150 nM
same,Activity,[35],116%
